Experimental data as given in paper PMC4644816, “A Tetrameric Peptide Derived from Bovine Lactoferricin Exhibits Specific Cytotoxic Effects against Oral Squamous-Cell Carcinoma Cell Lines” (BioMed Research International, 2015).
Where a SMILES comes first, the peptide text is derived from it. Bridges are numbered along the chain shown (N, C = ends). Roman numbers before positions name the chains, in order. Where no end group is shown, it is not given here. [ ]: non-standard residue; d: D form. Ahx = NCCCCCC(=O)O

Columns and labels:
CAL27 cells [1] = assay: MTT cytotoxic assay, CAL27; format: cell-based
Protocol: (§1) The cell lines CAL27 (ATCC CRL-2095) and SCC15 (ATCC CRL-1623) and the human immortalized nontumorigenic epithelial esophagus cell line Het-1A (ATCC CRL-2692) were purchased from ATCC (Manassas, VA). CAL27 cells were cultured in Dulbecco's Modified Eagle's Medium (DMEM; Gibco) with 10% of fetal bovine serum (FBS; Gibco). […] Het-1A cells were cultured in Bronchial Epithelial Cell Growth Medium (BEBM) with the additives obtained from Lonza/Clonetics Corporation as a kit (CC-3170), without antibiotics. All cells were maintained at 37°C in a 5% CO2 humidified atmosphere. For Het-1A cells, the culture flasks were precoated with fibronectin (0.01 mg/mL), bovine collagen type I (0.03 mg/mL), and bovine serum albumin (0.01 mg/mL) dissolved in a culture medium and incubated for 24 h before culturing the cells. Cell stocks were prepared and thawed periodically and used in early subcultures (not exceeding 5–10 population doublings). Cell viability was estimated by Trypan blue exclusion staining and was always higher than 97%. Growth curves for each cell line were done using 3-(4,5-dimethylthiazol-2-yl)-2,5-diphenyltetrazolium bromide (MTT). […] SCC15 cells having a mesenchymal- or epithelia-like phenotype were separated by their differential adherence to plastic dish and characterized for the expression of specific markers (see Section 2.7). Cytotoxic activity was determined using the MTT assay. Briefly, cells were seeded in 96-well plates with a confluence of approximately 70% (8 × 10^3 CAL27-cells/well, 4 × 10^3 SCC15-cells/well, and 1.6 × 10^4 Het-1A-cells/well). After cell adherence, the culture medium was removed and peptides at different concentrations (between 100 and 6.25 μg/mL) and times (between 1 and 24 h or 48, 72, and 96 h) were added to the wells in the absence of FBS. Staurosporine (STA) was used as positive control (CAL27: 0.4 μg/mL, SCC15 0.6 μg/mL, and Het-1A 0.6 μg/mL). Phase-contrast photomicrographs of the treated cells were taken (Nikon, Eclipse TS500). After treatment, the medium was replaced with 100 μL of complete culture media with 10% of MTT (5 mg/mL), and cells were incubated for 4–6 h. Finally, 100 μL of DMSO was added in order to lyse the cells and release and solubilize the Formazan crystals. After 10 min of incubation at 37°C, absorbance was measured at 550 nm. […] In some experiments and after treatments, remaining viable cells were treated again with peptides. Cells were first treated with peptides for 24 h and washed carefully and then fresh culture medium was added and cells were further incubated for 72 h.

SCC15 cells = assay: MTT cytotoxic assay, SCC15; format: cell-based
Protocol: as §1

Het-1A cells [2] = assay: MTT cytotoxic assay, Het-1A; format: cell-based, human
Protocol: as §1

[3] = system: normal human erythrocytes; format: cell-based
Protocol: 5 mL of heparinized peripheral blood was centrifuged at 1000 g for 7 min. The erythrocyte-rich fraction was resuspended in 10 mL of PBS and washed twice by centrifugation at 1000 g for 7 min. […] PBS was used as negative control, while Tween-20 (20% v/v) in PBS was used as positive controls. The 96-well plates were centrifuged, the supernatants were collected, and the absorbance was determined at 540 nm.

CAL27 cells [4] = assay: Apoptotic/necrotic assay (Annexin V-FITC/PI flow cytometry), CAL27; conditions: CAL27, 1 h treatment
Protocol: (§2) 1 × 10^5 CAL27 and Het-1A cells were treated with peptides for 1 h at 37°C and then labeled with Annexin V-FITC/PI, using the Dead Cell Apoptosis Kit for flow cytometry (Thermo Fisher Scientific). As a control for necrosis, the cells were treated for 5 min with 0.2% T-X100.

Het-1A cells [5] = assay: Apoptotic/necrotic assay (Annexin V-FITC/PI flow cytometry), Het-1A; conditions: 1 h treatment
Protocol: as §2

| concentration at which lysis of erythrocytes was shown [3] [µg/mL] | Compound | IC50 (CAL27 cells [1]; 1 h) [µM] | IC50 (CAL27 cells [1]; 3 h) [µM] | IC50 (CAL27 cells [1]; 24 h) [µM] | IC50 (SCC15 cells; 1 h) [µM] | IC50 (SCC15 cells; 3 h) [µM] | IC50 (SCC15 cells; 24 h) [µM] | IC50 (Het-1A cells [2]; 1 h) [µM] | IC50 (Het-1A cells [2]; 3 h) [µM] | IC50 (Het-1A cells [2]; 24 h) [µM] | cytotoxicity (CAL27 cells [1]; CAL27, 24 h, highest concentration tested 100 μg/mL (LfB 1.25 μM, LfcinB25 32 μM, LfcinB(20–25)4 22.25 μM), MTT) [%] | cytotoxicity (SCC15 cells; SCC15, 24 h, highest concentration tested 100 μg/mL (LfB 1.25 μM, LfcinB25 32 μM, LfcinB(20–25)4 22.25 μM), MTT) [%] | cytotoxicity (Het-1A cells [2]; Het-1A, 24 h, highest concentration tested 100 μg/mL (LfB 1.25 μM, LfcinB25 32 μM, LfcinB(20–25)4 22.25 μM), MTT) [%] | cytotoxic effect (in words) (CAL27 cells [1]; CAL27, 24 h, MTT, up to 100 μg/mL) | cytotoxic effect (in words) (SCC15 cells; SCC15, 24 h, MTT, up to 100 μg/mL) | cytotoxic effect (in words) (Het-1A cells [2]; Het-1A, 24 h, MTT, at 40 μM) | cytotoxicity of a second addition of the peptide (in words) (CAL27 cells [1]) | apoptotic cell population (PI−/Annexin+), in words (CAL27 cells [4]) | apoptotic cell population (PI−/Annexin+), in words (Het-1A cells [5]) |
| --- | --- | --- | --- | --- | --- | --- | --- | --- | --- | --- | --- | --- | --- | --- | --- | --- | --- | --- | --- |
|  | RRWQWR-NH2 (C-terminus assumed) [LfcinB(20–25)] | > 101 | > 101 | > 101 | > 101 | > 101 | > 101 | > 101 | > 101 | > 101 |  |  |  |  |  |  |  |  |  |
|  | CC[C@H](C)[C@H](NC(=O)[C@H](CO)NC(=O)[C@@H]1CCCN1C(=O)[C@H](C)NC(=O)CNC(=O)[C@H](CC(C)C)NC(=O)[C@H](CCCCN)NC(=O)[C@H](CCCCN)NC(=O)[C@H](CCSC)NC(=O)[C@H](CCCNC(=N)N)NC(=O)[C@H](Cc1c[nH]c2ccccc12)NC(=O)[C@H](CCC(N)=O)NC(=O)[C@H](Cc1c[nH]c2ccccc12)NC(=O)[C@H](CCCNC(=N)N)NC(=O)[C@H](CCCNC(=N)N)NC(=O)[C@H](CS)NC(=O)[C@H](CCCCN)NC(=O)[C@@H](N)Cc1ccccc1)C(=O)N[C@H](C(=O)N[C@@H](CS)C(=O)N[C@H](C(=O)N[C@@H](CCCNC(=N)N)C(=O)N[C@@H](CCCNC(=N)N)C(=O)N[C@@H](C)C(=O)N[C@@H](Cc1ccccc1)C(N)=O)C(C)C)[C@@H](C)O [LfcinB25, reference compound] |  |  |  |  |  |  |  |  |  | 64.4 | 60 | 60.5 |  |  |  |  |  |  |
|  | RWQWRWQWR-NH2 (C-terminus assumed) [LfcinB-Pal] | 22.8 ± 1.12 | 22.6 ± 1.02 | 21.5 ± 1.05 | > 67.3 | > 67.3 | > 67.3 | > 67.3 | 62.2 ± 1.56 | > 67.3 |  |  |  | clearly improved the cytotoxic effect | only slightly | low |  |  |  |
| 500 | N=C(N)NCCC[C@H](NC(=O)[C@H](Cc1c[nH]c2ccccc12)NC(=O)[C@H](CCC(N)=O)NC(=O)[C@H](Cc1c[nH]c2ccccc12)NC(=O)[C@H](CCCNC(=N)N)NC(=O)[C@@H](N)CCCNC(=N)N)C(=O)NCCCC[C@H](NC(=O)[C@H](CCCNC(=N)N)NC(=O)[C@H](Cc1c[nH]c2ccccc12)NC(=O)[C@H](CCC(N)=O)NC(=O)[C@H](Cc1c[nH]c2ccccc12)NC(=O)[C@H](CCCNC(=N)N)NC(=O)[C@@H](N)CCCNC(=N)N)C(=O)NCCCCCC(=O)N[C@@H](CSSC[C@H](NC(=O)CCCCCNC(=O)[C@H](CCCCNC(=O)[C@H](CCCNC(=N)N)NC(=O)[C@H](Cc1c[nH]c2ccccc12)NC(=O)[C@H](CCC(N)=O)NC(=O)[C@H](Cc1c[nH]c2ccccc12)NC(=O)[C@H](CCCNC(=N)N)NC(=O)[C@@H](N)CCCNC(=N)N)NC(=O)[C@H](CCCNC(=N)N)NC(=O)[C@H](Cc1c[nH]c2ccccc12)NC(=O)[C@H](CCC(N)=O)NC(=O)[C@H](Cc1c[nH]c2ccccc12)NC(=O)[C@H](CCCNC(=N)N)NC(=O)[C@@H](N)CCCNC(=N)N)C(N)=O)C(N)=O [LfcinB(20–25)4] (I: H-RRWQWRK[Ahx]C-NH2 / II: H-RRWQWRK[Ahx]C-NH2 / III: H-RRWQWR / IV: H-RRWQWR; amide I:7-III:C, II:7-IV:C; disulfide I:9-II:9; N-terminus and C-terminus assumed) | 16 ± 1.36 | 17.4 ± 1.77 | 9.02 ± 1.38 | 13.6 ± 1.06 | 12.6 ± 1.06 | 9.05 ± 1.07 |  | 18.8 ± 1.11 | 17.4 ± 1.11 |  |  |  |  |  |  | reduced to the same extent as the one obtained after the first treatment | not detected | not detected |
